Among the test systems are SNB-75; MDA-MB-435; SK-MEL-2; MDA-N; SF-268; MCF7; PC-3; A498; Hs-578T; LOX IMVI; NCI-H23; 786-0; NCI-H522; CCRF-CEM; IGROV-1; OVCAR-4; HOP-62; M14; T47D; RXF 393.
Common to all, as to assay: growth of human tumour cells (NCI), 48 h

Where “and” joins values, the source holds several entries; their conditions need not be identical. Identical values can stand only once.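 Briefly, cells in 96-well plates were exposed to five compound concentrations for 48 h, and endpoints were estimated by linear interpolation. The concentration for 50% growth inhibition is given as GI50.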 Calls of active or inactive are those of the source. Cut-off read from the data, not from the text of the source: active = GI50 up to about 1.1 µM and inactive = higher.

As for `OCC1(CNc2cc(Cl)ncn2)CCC1`, the GI50 in the assay on SNB-75, in the assay with MDA-MB-435, in the assay with SK-MEL-2, with MDA-N, in the assay with SF-268 and in the assay with MCF7 was > 100 µM (inactive) each time. The GI50 in the assay on PC-3, in the assay on A498, in the assay on Hs-578T, with LOX IMVI, in the assay with NCI-H23 and in the assay on 786-0 was > 100 µM (inactive) in each case. Also, the GI50 in the assay with NCI-H522, in the assay on CCRF-CEM, with IGROV-1, in the assay on OVCAR-4 and in the assay on HOP-62 was > 100 µM (inactive) throughout.
Regarding `CCOC(=O)c1c(C)n(C)c2c1cc(O)c1[nH]c3c(c12)CCCC3`, the GI50 with MDA-MB-435 is 13.4 µM (inactive); with SK-MEL-2 it was 18.5 µM (inactive); with MDA-N, 15.6 µM (inactive); with SF-268, 2 µM (inactive); in the assay with MCF7, 2.71 µM (inactive); in the assay on M14, 13.2 µM (inactive). Besides, the GI50 in the assay on PC-3 was 18.3 µM (inactive); in the assay with Hs-578T, 32.7 µM (inactive); in the assay on T47D it was 18.2 µM (inactive); in the assay with LOX IMVI, 14.5 µM (inactive); with NCI-H23, 21 µM (inactive); in the assay on 786-0, 15.6 µM (inactive). For the same compound, the GI50 in the assay on NCI-H522 is 14 µM (inactive); in the assay on CCRF-CEM, 20.3 µM (inactive); in the assay with IGROV-1, 12.7 µM (inactive); with OVCAR-4, 10.8 µM (inactive); in the assay with HOP-62, 38.3 µM (inactive).
Regarding `Cc1cc(S(=O)(=O)Nc2nc(N)n[nH]2)c(SCC(=O)O)cc1Cl`, the GI50 with SNB-75, in the assay with SK-MEL-2, in the assay with MDA-N, with SF-268, in the assay on RXF 393 and with MCF7 was > 10 µM (inactive) in each case. Further, the GI50 in the assay with M14, in the assay on PC-3, in the assay on A498, in the assay on Hs-578T, in the assay on T47D and in the assay with LOX IMVI was > 10 µM (inactive) in each case. The GI50 in the assay on NCI-H23, in the assay with 786-0, in the assay with NCI-H522, with CCRF-CEM, with IGROV-1 and in the assay with OVCAR-4 was > 10 µM (inactive) throughout. Besides, the GI50 in the assay on HOP-62 was > 10 µM (inactive).
Turning to `O=C1/C(=C/c2ccc(OC(=O)c3ccc(Cl)cc3)cc2)CCC/C1=C\c1ccc(OC(=O)c2ccc(Cl)cc2)cc1`, the GI50 in the assay with SNB-75 was 21 µM (inactive); in the assay with MDA-MB-435, > 100 µM (inactive); in the assay with SK-MEL-2 it was > 100 µM (inactive); in the assay on MDA-N it was > 100 µM (inactive); with SF-268, > 100 µM (inactive); in the assay on MCF7 it was > 100 µM (inactive). The GI50 in the assay with M14 was > 100 µM (inactive); in the assay with PC-3, > 100 µM (inactive); in the assay with Hs-578T, 23.8 µM (inactive); in the assay on T47D it was > 100 µM (inactive); in the assay on LOX IMVI, > 100 µM (inactive); in the assay on NCI-H23, > 100 µM (inactive). The GI50 is 55 µM (inactive) in the assay on 786-0; > 100 µM (inactive) in the assay on NCI-H522; > 100 µM (inactive) in the assay with CCRF-CEM; > 100 µM (inactive) in the assay with IGROV-1; > 100 µM (inactive) in the assay on OVCAR-4; 19.4 µM (inactive) in the assay with HOP-62.
Take `CC(=O)OCC1OC(n2c(C)c(C(C)=O)c(-c3ccco3)c(C#N)c2=S)C(OC(C)=O)C(OC(C)=O)C1OC(C)=O` (stereo unspecified): the GI50 in the assay on MDA-MB-435, in the assay on MDA-N, in the assay on SF-268, in the assay on RXF 393, in the assay on MCF7 and in the assay with M14 was > 100 µM (inactive) each time. Further, the GI50 in the assay with PC-3 is > 100 µM (inactive); with A498, 85.1 µM (inactive); in the assay with T47D, > 100 µM (inactive); in the assay with LOX IMVI it was 64.3 µM (inactive); in the assay with NCI-H23 it was > 100 µM (inactive); in the assay on 786-0, > 100 µM (inactive). The GI50 in the assay with NCI-H522 is > 100 µM (inactive); in the assay with CCRF-CEM, > 100 µM (inactive) and 53.2 µM (inactive); in the assay on HOP-62, > 100 µM (inactive).
Turning to `COc1ccc(C(=O)N2CCN(c3ccc4[nH]c(=O)oc4c3)CC2)cc1`, the GI50 was 62.4 µM (inactive) in the assay on SNB-75; > 100 µM (inactive) in the assay with MDA-MB-435; > 100 µM (inactive) with SK-MEL-2; > 100 µM (inactive) in the assay with MDA-N; > 100 µM (inactive) with SF-268; > 100 µM (inactive) in the assay with MCF7. For the same compound, the GI50 in the assay with M14 was > 100 µM (inactive); in the assay on PC-3, > 100 µM (inactive); in the assay with Hs-578T it was 58.5 µM (inactive); in the assay on T47D, > 100 µM (inactive); in the assay on LOX IMVI, > 100 µM (inactive); in the assay with NCI-H23 it was > 100 µM (inactive). Further, the GI50 in the assay with 786-0 is > 100 µM (inactive); in the assay on NCI-H522 it was 53.1 µM (inactive); in the assay with CCRF-CEM, > 100 µM (inactive); with IGROV-1, 99.1 µM (inactive); in the assay on OVCAR-4 it was 84.1 µM (inactive); in the assay on HOP-62, > 100 µM (inactive).
In the case of `Nc1c(Br)cc(-c2cc(Br)c(N)c(Br)c2)cc1Br`, the GI50 in the assay with SNB-75 was 59 µM (inactive); in the assay on MDA-MB-435, > 100 µM (inactive); in the assay with MDA-N it was > 100 µM (inactive); with SF-268, > 100 µM (inactive); in the assay on RXF 393 it was 33.6 µM (inactive); in the assay on MCF7, > 100 µM (inactive). Also, the GI50 is > 100 µM (inactive) in the assay on M14; > 100 µM (inactive) with PC-3; 73.1 µM (inactive) with Hs-578T; > 100 µM (inactive) in the assay on T47D; > 100 µM (inactive) with LOX IMVI; > 100 µM (inactive) in the assay with NCI-H23. The GI50 with 786-0 is > 100 µM (inactive); in the assay on NCI-H522, > 100 µM (inactive); in the assay with CCRF-CEM, > 100 µM (inactive); with IGROV-1, > 100 µM (inactive); in the assay with OVCAR-4, > 100 µM (inactive); in the assay with HOP-62, 66.1 µM (inactive).
Regarding `CC(C)(C)NCc1cc(C(C)(C)C)cc(-c2ccc(Cl)cc2)c1O`, the GI50 in the assay with SNB-75 was 10.7 µM (inactive); in the assay on MDA-MB-435, 12.6 µM (inactive); with SK-MEL-2, 18.4 µM (inactive); in the assay on MDA-N it was 16.1 µM (inactive); in the assay with SF-268, 12.6 µM (inactive); with MCF7 it was 14.6 µM (inactive). The GI50 in the assay with M14 is 15 µM (inactive); in the assay with Hs-578T, 13.3 µM (inactive); in the assay with NCI-H23, 12.6 µM (inactive); in the assay on 786-0 it was 13.9 µM (inactive); in the assay with NCI-H522, 11 µM (inactive); in the assay on IGROV-1, 11.2 µM (inactive). Also, the GI50 is 16.5 µM (inactive) in the assay on OVCAR-4 and 6.14 µM (inactive) with HOP-62.
In the case of `c1cc2ccc3cc4ncccc4c4ccc(c1)c2c34`, the GI50 is 19.8 µM (inactive) in the assay with SNB-75; 40.4 µM (inactive) in the assay on MDA-MB-435; 16.6 µM (inactive) in the assay on SK-MEL-2; 41.9 µM (inactive) in the assay with MDA-N; 30.7 µM (inactive) in the assay with SF-268; 46.8 µM (inactive) in the assay on RXF 393. Besides, the GI50 in the assay with MCF7 was 0.338 µM (active); in the assay on M14, 71.6 µM (inactive); in the assay with PC-3, 33 µM (inactive); in the assay with Hs-578T, > 100 µM (inactive); with T47D it was 3.36 µM (inactive); with LOX IMVI, 12.1 µM (inactive). The GI50 in the assay on NCI-H23 was 27.5 µM (inactive); in the assay on 786-0, 18.8 µM (inactive); with NCI-H522, 16.7 µM (inactive); in the assay on CCRF-CEM, 19.7 µM (inactive); in the assay with IGROV-1, 1.32 µM (inactive); with HOP-62, 19.9 µM (inactive).
In the case of `Cc1ccc(S(=O)(=O)N2C3C=CC(C3)[C@@H]2C(Cl)(Cl)Cl)cc1` (stereo partly specified), the GI50 was 18.2 µM (inactive) with SNB-75; 27 µM (inactive) in the assay with MDA-MB-435; 7.36 µM (inactive) with SK-MEL-2; 35 µM (inactive) with MDA-N; 13.2 µM (inactive) in the assay with SF-268; 26.7 µM (inactive) in the assay with MCF7. The GI50 in the assay with M14 is 14.4 µM (inactive); in the assay on PC-3, 5.06 µM (inactive); with Hs-578T, 5.07 µM (inactive); in the assay on T47D, 10.7 µM (inactive); with LOX IMVI, 18.5 µM (inactive); in the assay on NCI-H23, 27.2 µM (inactive). For the same compound, the GI50 is 10 µM (inactive) in the assay on 786-0; 14 µM (inactive) in the assay on NCI-H522; 17 µM (inactive) in the assay on CCRF-CEM; 19.6 µM (inactive) in the assay on IGROV-1; 15.2 µM (inactive) in the assay on OVCAR-4; 10.4 µM (inactive) in the assay with HOP-62.
As to `COc1cc2c(c(OC)c1OC)-c1ccc(SC)c(=O)cc1[C@@H](OC(C)=O)CC2`, the GI50 with SNB-75 was < 0.0152 µM (active); with MDA-MB-435, < 0.01 µM (active); with SK-MEL-2, < 0.01 µM (active); in the assay on MDA-N, < 0.01 µM (active); with SF-268, < 0.01 µM (active); with RXF 393 it was 0.885 µM (active). The GI50 was < 0.01 µM (active) in the assay on MCF7; < 0.01 µM (active) with M14; < 0.01 µM (active) with PC-3; < 0.01 µM (active) in the assay on Hs-578T; > 100 µM (inactive) with T47D; < 0.01 µM (active) in the assay with LOX IMVI. Besides, the GI50 with NCI-H23 was < 0.01 µM (active); in the assay with 786-0 it was < 0.01 µM (active); with NCI-H522 it was < 0.01 µM (active); in the assay on CCRF-CEM, < 0.01 µM (active); in the assay on IGROV-1, < 0.01 µM (active); in the assay with OVCAR-4 it was > 100 µM (inactive). For the same compound, the GI50 in the assay on HOP-62 was < 0.01 µM (active).
